According to ChEMBL document CHEMBL2151039, “Discovery and development of α7 nicotinic acetylcholine receptor modulators” (J Med Chem, 2011):
pIC50, pKi: −log10 of the molar value. Where a SMILES comes first, the peptide text is derived from it. Bridges are numbered along the chain shown (N, C = ends).

Columns and labels:
[1] = molecular target: Neuronal acetylcholine receptor subunit alpha-7 (Mus musculus, UniProt P49582); experiment: Displacement of [125I]alpha-Bungarotoxin from alpha7 nAchR in mouse hippocampal membranes; assay type: cell membranes, Hippocampus
[2] = molecular target: Neuronal acetylcholine receptor subunit alpha-7 (Homo sapiens, UniProt P36544); experiment: Antagonist activity at human alpha7 nAChR expressed in Xenopus oocyte; assay type: functional
Homo sapiens = organism: Homo sapiens; experiment: Selectivity ratio of IC50 for nAChR to IC50 for human alpha7 nAChR

Chain of Neuronal acetylcholine receptor subunit alpha-7 (Homo sapiens, UniProt P36544) (P36544 whole entry): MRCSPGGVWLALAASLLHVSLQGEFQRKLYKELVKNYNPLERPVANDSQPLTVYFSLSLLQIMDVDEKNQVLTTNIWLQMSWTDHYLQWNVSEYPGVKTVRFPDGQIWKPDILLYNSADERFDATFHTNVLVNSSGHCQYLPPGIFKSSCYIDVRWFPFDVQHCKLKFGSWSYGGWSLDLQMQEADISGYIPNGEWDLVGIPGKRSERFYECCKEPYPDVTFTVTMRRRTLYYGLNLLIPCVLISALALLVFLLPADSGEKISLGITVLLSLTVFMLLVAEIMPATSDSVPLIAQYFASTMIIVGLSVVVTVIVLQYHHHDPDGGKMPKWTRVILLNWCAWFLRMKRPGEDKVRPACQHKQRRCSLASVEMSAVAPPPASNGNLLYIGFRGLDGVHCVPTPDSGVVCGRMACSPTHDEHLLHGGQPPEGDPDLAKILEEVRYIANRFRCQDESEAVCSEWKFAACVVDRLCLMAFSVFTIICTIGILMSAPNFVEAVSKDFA
Chain of Neuronal acetylcholine receptor subunit alpha-7 (Mus musculus, UniProt P49582) (P49582 whole entry): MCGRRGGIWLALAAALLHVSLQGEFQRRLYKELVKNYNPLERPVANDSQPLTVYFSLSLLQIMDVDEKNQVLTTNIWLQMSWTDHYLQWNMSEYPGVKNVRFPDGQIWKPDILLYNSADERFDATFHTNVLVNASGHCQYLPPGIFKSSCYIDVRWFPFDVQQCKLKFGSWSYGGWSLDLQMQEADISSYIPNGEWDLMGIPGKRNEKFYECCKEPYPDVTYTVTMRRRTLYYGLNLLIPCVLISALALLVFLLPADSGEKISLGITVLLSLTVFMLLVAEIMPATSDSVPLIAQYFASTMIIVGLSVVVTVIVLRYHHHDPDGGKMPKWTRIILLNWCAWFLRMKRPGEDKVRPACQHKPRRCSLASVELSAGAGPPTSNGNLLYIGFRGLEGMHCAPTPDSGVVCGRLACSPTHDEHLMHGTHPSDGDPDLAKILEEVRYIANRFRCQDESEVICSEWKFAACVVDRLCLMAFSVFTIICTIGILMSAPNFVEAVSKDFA

CC(C)C[C@@H]1NC(=O)[C@H](CCCNC(=N)N)NC(=O)[C@@H]2CSSC[C@H](NC(=O)[C@H](CCC(=O)O)NC(=O)[C@@H](N)CC(=O)O)C(=O)N[C@@H](CSSC[C@@H](C(=O)N[C@@H](CCCNC(=N)N)C(=O)N[C@@H](CCCNC(=N)N)C(=O)N[C@@H](CCCNC(=N)N)C(=O)O)NC(=O)[C@H](CC(=O)O)NC(=O)[C@H](Cc3cnc[nH]3)NC(=O)[C@@H]3CCCN3C(=O)[C@H](CC(N)=O)NC(=O)[C@H](CC(N)=O)NC1=O)C(=O)N[C@@H](CO)C(=O)N[C@@H](CC(N)=O)C(=O)N1CCC[C@H]1C(=O)N[C@@H](C)C(=O)N2 (H-DECCSNPACRLNNPHDCRRR-OH; disulfide 3-9, 4-17)
pKi [1]: 8.15
pIC50 [2]: 8.96
Ratio IC50 (Homo sapiens): > 800
